What follows are compounds tested against T1, FimH (Escherichia coli, UniProt Q1R2J4) (assay: Hemagglutination inhibition (HAI) assay with UTI89 bacteria and guinea pig red blood cells). Conditions: concentration reducing bacterial agglutination of guinea pig red blood cells by greater than 90%; UTI89 bacteria.
T1 construct: endogenous in cells; host or cells: E. coli UTI89 bacteria
Assay type: cell-based
Experimental: “HAI or EC>90” is that concentration of the FimH inhibitor/antagonist which reduces the bacterial agglutination of guinea pig red blood cells by greater than 90%.
HAI Assay The hemagglutination inhibition (HAI) assay was performed with UTI89 bacteria and guinea pig red blood cells, as previously described (S. J. Hultgren, W. R. Schwan, A. J. Schaeffer, J. L. Duncan Infect. Immun. 1986, 54, 613-620). Compounds not listed were not tested.
In the case of `Cc1cc(Oc2cccc(C#N)c2)c([N+](=O)[O-])cc1O[C@H]1O[C@H](CO)[C@@H](O)[C@H](O)[C@@H]1O` [Example 1, 3-[4-(α-D-mannopyranosyloxy)-5-methyl-2-nitrophenoxy]benzonitrile], the “HAI titer EC>90” value is reported as 0.125 µM. For `Cc1cc(-n2cc(-c3ccccn3)nn2)ccc1O[C@H]1O[C@H](CO)[C@@H](O)[C@H](O)[C@@H]1O` [Example 3, 2-methyl-4-[4-(pyridin-2-yl)-1H-1,2,3-triazol-1-yl]phenyl α-D-mannopyranoside], the “HAI titer EC>90” value was 0.062 µM. With `Cc1cc(-n2cc(-c3cccc(C(=O)O)c3)nn2)ccc1O[C@H]1O[C@H](CO)[C@@H](O)[C@H](O)[C@@H]1O` [Example 5, 2-methyl-4-[4-(3-carboxyphenyl)-1H-1,2,3-triazol-1-yl]phenyl α-D-mannopyranoside] the “HAI titer EC>90” value was 0.062 µM. `Cc1cc(-c2ccnc(Cl)c2)ccc1OC1OC(CO)C(O)C(O)C1O` [Example 6a, 4-(2′-chloropyrid-4′-yl)-2-methylphenyl α-D-mannopyranoside] was tested, and the “HAI titer EC>90” value was 0.062 µM. In the case of `Cc1cc(-c2ccnc(-c3ccnc(Cl)c3)c2)ccc1OC1OC(CO)C(O)C(O)C1O` [Example 6b, 4-[2′-(2″-chloropyrid-4″-yl)-pyrid-4′-yl]-2-methylphenyl α-D-mannopyranoside], the “HAI titer EC>90” value is reported as 0.062 µM. In the case of `Cc1cc(-c2cccc(C(=O)N3CCOCC3)c2)ccc1O[C@H]1O[C@H](CO)[C@@H](O)[C@H](O)[C@@H]1O` [Example 7, 3-methyl-3′-(morpholin-4-ylcarbonyl)biphenyl-4-yl α-D-mannopyranoside], the “HAI titer EC>90” value is reported as 0.25 µM. With `Cc1cc(-c2cccc(C(=O)N3CCNCC3)c2)ccc1O[C@H]1O[C@H](CO)[C@@H](O)[C@H](O)[C@@H]1O` [Example 8, 3-methyl-3′-(piperazin-1-ylcarbonyl)biphenyl-4-yl α-D-mannopyranoside] the “HAI titer EC>90” value was 0.25 µM. `Cc1cc(-c2cncc(C(=O)NC(C)C)c2)ccc1O[C@H]1O[C@H](CO)[C@@H](O)[C@H](O)[C@@H]1O` [Example 9, 5-[4′-(α-D-mannopyranosyloxy)-3′-methylphenyl]-N-isopropyl-3-pyridinecarboxamide] was tested, and the “HAI titer EC>90” value was 0.032 µM. With `Cc1cc(-c2cccc(C(=O)NCCCCCCNC(=O)CCCCC[N+]3=C(/C=C/C=C/C=C4/c5ccc6ccccc6c5C(C)(C)N4C)C(C)(C)c4ccc5ccccc5c43)c2)ccc1OC1OC(CO)C(O)C(O)C1O.[Cl-]` [Example 10, N-(Cyanine5.5)-4′-(α-D-mannopyranosyl)-3′-methyl-[1,1′biphenyl]-3-carboxamide chloride] the “HAI titer EC>90” value was 16 µM. With `COC(=O)c1cncc(-c2ccc(O[C@H]3O[C@H](CO)[C@@H](O)[C@H](O)[C@@H]3O)c(C)c2)c1` [Example 11, 5-[4′-(α-D-mannopyranosyloxy)-3′-methylphenyl]-3-pyridinecarboxylic acid methyl ester] the “HAI titer EC>90” value was 0.032 µM. `Cc1cc(-c2ccc3[nH]nc(C)c3c2)ccc1O[C@H]1O[C@H](CO)[C@@H](O)[C@H](O)[C@@H]1O` [Example 12, 3-Methyl-5-[4′-(α-D-mannopyranosyloxy) 3′-methylphenyl]-1H-indazole] was tested, and the “HAI titer EC>90” value was 0.062 µM. With `Cc1cc(-c2ccc3[nH]nc(N)c3c2)ccc1O[C@H]1O[C@H](CO)[C@@H](O)[C@H](O)[C@@H]1O` [Example 13, 5-[4′-(α-D-mannopyranosyloxy)-3′-methylphenyl]-1H-indazol-3-amine] the “HAI titer EC>90” value was 0.125 µM. In the case of `Cc1cc(-c2cccc3cnccc23)ccc1O[C@H]1O[C@H](CO)[C@@H](O)[C@H](O)[C@@H]1O` [Example 15, 5-[4′-(α-D-mannopyranosyloxy)-3′-methylphenyl]-isoquinoline], the “HAI titer EC>90” value is reported as 0.062 µM. With `Cc1cc(-c2cccc3c(=O)[nH]ccc23)ccc1O[C@H]1O[C@H](CO)[C@@H](O)[C@H](O)[C@@H]1O` [Example 16, 5-[4′-(α-D-mannopyranosyloxy)-3′-methylphenyl]-1(2H)-isoquinolinone] the “HAI titer EC>90” value was 0.125 µM.
